The supplement of paper PMC8671470

tested on: myeloid leukemia patient primary cells Pat.6; assay: cell viability (% survival relative to DMSO control); higher = less cytotoxic; details: 1000 nM; 72 h
Method in brief: (§1)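 Thawed mononuclear cells from AML or CML patients were purified on Ficoll and cultured for 72 h in RPMI 1640 with 10% FBS, at 10,000 cells/well, on 384-well plates carrying 70 pre-printed compounds at 1–10,000 nM in five tenfold steps, in duplicate. Viability came from CellTiter-Glo, normalised against DMSO and against 10 μM proteasome inhibitor. Any area under the curve given was derived from log-logistic curve fits in the drc and PharmacoGx R packages, and these fits had four parameters.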

SMILES | cell viability
O=C(c1c2ccccc2cc2ccccc12)N1CCC(N2CCC[C@@H](C(=O)N3CCOCC3)C2)CC1 | 74.9%
c1ccc2c(c1)SCc1c-2[nH]c2ccccc12 | 88.3%
CCC(CC#N)OC(=O)N[C@@H](C)c1cccc(NC(=O)Nc2ccc(-c3cnco3)c(OC)c2)c1 (stereo in doubt) [AVN-944] | 87.4%
Oc1ncc(F)c(O)n1 [5-fluorouracil] | 99.3%
CN(C)CCNC(=O)c1cccn2c(=O)c3cc4ccccc4cc3nc12 [Bmh-21] | 67.1%

same assay, conditions: 10000 nM; 72 h

SMILES | cell viability
O=C(c1c2ccccc2cc2ccccc12)N1CCC(N2CCC[C@@H](C(=O)N3CCOCC3)C2)CC1 | 96.6%
c1ccc2c(c1)SCc1c-2[nH]c2ccccc12 | 0.384%
CCC(CC#N)OC(=O)N[C@@H](C)c1cccc(NC(=O)Nc2ccc(-c3cnco3)c(OC)c2)c1 (stereo in doubt) [AVN-944] | 64%
Oc1ncc(F)c(O)n1 [5-fluorouracil] | 98.5%
CN(C)CCNC(=O)c1cccn2c(=O)c3cc4ccccc4cc3nc12 [Bmh-21] | 10.2%

tested on: myeloid leukemia patient primary cells Pat.1; assay: as above; details: 1 nM; 72 h
Method in brief: as §1

SMILES | cell viability
O=C(c1c2ccccc2cc2ccccc12)N1CCC(N2CCC[C@@H](C(=O)N3CCOCC3)C2)CC1 | > 100%
c1ccc2c(c1)SCc1c-2[nH]c2ccccc12 | 95.2%
CCC(CC#N)OC(=O)N[C@@H](C)c1cccc(NC(=O)Nc2ccc(-c3cnco3)c(OC)c2)c1 (stereo in doubt) [AVN-944] | 90.9%
Oc1ncc(F)c(O)n1 [5-fluorouracil] | 88.5%
CN(C)CCNC(=O)c1cccn2c(=O)c3cc4ccccc4cc3nc12 [Bmh-21] | 85.9%

same assay, conditions: 10 nM; 72 h

SMILES | cell viability
O=C(c1c2ccccc2cc2ccccc12)N1CCC(N2CCC[C@@H](C(=O)N3CCOCC3)C2)CC1 | 83%
c1ccc2c(c1)SCc1c-2[nH]c2ccccc12 | 64.7%
CCC(CC#N)OC(=O)N[C@@H](C)c1cccc(NC(=O)Nc2ccc(-c3cnco3)c(OC)c2)c1 (stereo in doubt) [AVN-944] | 85.7%
Oc1ncc(F)c(O)n1 [5-fluorouracil] | 93.1%
CN(C)CCNC(=O)c1cccn2c(=O)c3cc4ccccc4cc3nc12 [Bmh-21] | 91.9%

same assay, conditions: 100 nM; 72 h

SMILES | cell viability
O=C(c1c2ccccc2cc2ccccc12)N1CCC(N2CCC[C@@H](C(=O)N3CCOCC3)C2)CC1 | > 100%
c1ccc2c(c1)SCc1c-2[nH]c2ccccc12 | 96.7%
CCC(CC#N)OC(=O)N[C@@H](C)c1cccc(NC(=O)Nc2ccc(-c3cnco3)c(OC)c2)c1 (stereo in doubt) [AVN-944] | 87.2%
Oc1ncc(F)c(O)n1 [5-fluorouracil] | 91%
CN(C)CCNC(=O)c1cccn2c(=O)c3cc4ccccc4cc3nc12 [Bmh-21] | 91.5%

same assay, conditions: 1000 nM; 72 h

SMILES | cell viability
O=C(c1c2ccccc2cc2ccccc12)N1CCC(N2CCC[C@@H](C(=O)N3CCOCC3)C2)CC1 | 58.3%
c1ccc2c(c1)SCc1c-2[nH]c2ccccc12 | 85.8%
CCC(CC#N)OC(=O)N[C@@H](C)c1cccc(NC(=O)Nc2ccc(-c3cnco3)c(OC)c2)c1 (stereo in doubt) [AVN-944] | 82.4%
Oc1ncc(F)c(O)n1 [5-fluorouracil] | 97%
CN(C)CCNC(=O)c1cccn2c(=O)c3cc4ccccc4cc3nc12 [Bmh-21] | 3.71%

same assay, conditions: 10000 nM; 72 h

SMILES | cell viability
O=C(c1c2ccccc2cc2ccccc12)N1CCC(N2CCC[C@@H](C(=O)N3CCOCC3)C2)CC1 | 96.7%
c1ccc2c(c1)SCc1c-2[nH]c2ccccc12 | 0.548%
CCC(CC#N)OC(=O)N[C@@H](C)c1cccc(NC(=O)Nc2ccc(-c3cnco3)c(OC)c2)c1 (stereo in doubt) [AVN-944] | 65.8%
Oc1ncc(F)c(O)n1 [5-fluorouracil] | 85.8%
CN(C)CCNC(=O)c1cccn2c(=O)c3cc4ccccc4cc3nc12 [Bmh-21] | 0.712%

tested on: myeloid leukemia patient primary cells Pat.2; assay: as above; details: 1 nM; 72 h
Method in brief: as §1

SMILES | cell viability
O=C(c1c2ccccc2cc2ccccc12)N1CCC(N2CCC[C@@H](C(=O)N3CCOCC3)C2)CC1 | 94.4%
c1ccc2c(c1)SCc1c-2[nH]c2ccccc12 | 96.8%
CCC(CC#N)OC(=O)N[C@@H](C)c1cccc(NC(=O)Nc2ccc(-c3cnco3)c(OC)c2)c1 (stereo in doubt) [AVN-944] | > 100%
Oc1ncc(F)c(O)n1 [5-fluorouracil] | 95.9%
CN(C)CCNC(=O)c1cccn2c(=O)c3cc4ccccc4cc3nc12 [Bmh-21] | 96.5%

same assay, conditions: 10 nM; 72 h

SMILES | cell viability
O=C(c1c2ccccc2cc2ccccc12)N1CCC(N2CCC[C@@H](C(=O)N3CCOCC3)C2)CC1 | 99.4%
c1ccc2c(c1)SCc1c-2[nH]c2ccccc12 | 89.3%
CCC(CC#N)OC(=O)N[C@@H](C)c1cccc(NC(=O)Nc2ccc(-c3cnco3)c(OC)c2)c1 (stereo in doubt) [AVN-944] | 98.9%
Oc1ncc(F)c(O)n1 [5-fluorouracil] | 94.9%
CN(C)CCNC(=O)c1cccn2c(=O)c3cc4ccccc4cc3nc12 [Bmh-21] | 98.5%

same assay, conditions: 100 nM; 72 h

SMILES | cell viability
O=C(c1c2ccccc2cc2ccccc12)N1CCC(N2CCC[C@@H](C(=O)N3CCOCC3)C2)CC1 | 98%
c1ccc2c(c1)SCc1c-2[nH]c2ccccc12 | 97.2%
CCC(CC#N)OC(=O)N[C@@H](C)c1cccc(NC(=O)Nc2ccc(-c3cnco3)c(OC)c2)c1 (stereo in doubt) [AVN-944] | 81.5%
Oc1ncc(F)c(O)n1 [5-fluorouracil] | 99.1%
CN(C)CCNC(=O)c1cccn2c(=O)c3cc4ccccc4cc3nc12 [Bmh-21] | 97.8%

same assay, conditions: 1000 nM; 72 h

SMILES | cell viability
O=C(c1c2ccccc2cc2ccccc12)N1CCC(N2CCC[C@@H](C(=O)N3CCOCC3)C2)CC1 | 75.4%
c1ccc2c(c1)SCc1c-2[nH]c2ccccc12 | 86.9%
CCC(CC#N)OC(=O)N[C@@H](C)c1cccc(NC(=O)Nc2ccc(-c3cnco3)c(OC)c2)c1 (stereo in doubt) [AVN-944] | 81.8%
Oc1ncc(F)c(O)n1 [5-fluorouracil] | 88.9%
CN(C)CCNC(=O)c1cccn2c(=O)c3cc4ccccc4cc3nc12 [Bmh-21] | 91.6%

same assay, conditions: 10000 nM; 72 h

SMILES | cell viability
O=C(c1c2ccccc2cc2ccccc12)N1CCC(N2CCC[C@@H](C(=O)N3CCOCC3)C2)CC1 | 98.1%
c1ccc2c(c1)SCc1c-2[nH]c2ccccc12 | 3.43%
CCC(CC#N)OC(=O)N[C@@H](C)c1cccc(NC(=O)Nc2ccc(-c3cnco3)c(OC)c2)c1 (stereo in doubt) [AVN-944] | 83.1%
Oc1ncc(F)c(O)n1 [5-fluorouracil] | 97.5%
CN(C)CCNC(=O)c1cccn2c(=O)c3cc4ccccc4cc3nc12 [Bmh-21] | 33.1%
